Assay [1] deals with C8166. Description: Inhibitory activity against HIV-111B in C8166 cells. It is filed as functional, cell-based. The conditions noted are these: Homo sapiens.
Assay [2] relates to C8166. Description: Compound was tested for toxicity against HIV-111B in C8166 cells. The conditions noted are these: Homo sapiens, read-out: TC50 (the source's name). It is filed as functional.
Assay [3] can be described thus: Selectivity ratio of TC50 to that of EC50. In kind it is functional.
Assay [4] addresses Human immunodeficiency virus type 1 reverse transcriptase (Human immunodeficiency virus 1) (UniProt Q72547). Briefly: Concentration required for inhibition of HIV-1 reverse transcriptase (RT).
Assay [5] shares this target. Description: Compound was tested for % inhibition of HIV-1 reverse transcriptase (RT). The conditions noted are these: concentration not given here.
Assay [6] concerns C8166. Description: Compound was tested for toxicity against HIV-111B in C8166 cells; value ranges from 20-30 uM. The conditions noted are these: Homo sapiens, read-out: TC50 (the source's name). In kind it is functional.
The nature of assay [7]: Selectivity ratio of TC50 to that of EC50; value ranges from 12.5-19. In kind it is functional.
A short description of assay [8]: Selectivity ratio of TC50 to that of EC50; value ranges from 33-50. In kind it is functional.

Each structure is given as a SMILES string. A value given as a limit tells only on which side of the number the result lay.

With `CC(C)=CCN1Cc2cc(Cl)cc3[nH]c(=S)n(c23)C[C@@H]1C`, the midpoint of the response in the assay on C8166 [1], the EC50, lay at 0.002 µM. In the assay on C8166 [2], the CC50 was determined as 62 µM. The Ratio in assay [3] turned out to be 31000. In assay [4], this compound had a Concentration of 0.16 µM. Moreover, the inhibition in assay [5] was determined as 50%.

In the assay with C8166 [1], `CCCn1c(SC)nc2c(C)cccc21` returned an EC50 of 4 µM. For the same compound, the CC50 in the assay with C8166 [2] was 100 µM. Also, the Ratio in assay [3] was found to be 25.

On to `CCCn1c(SC)nc2c(CBr)cccc21`, for which, in the assay with C8166 [1], the concentration for a half-maximal effect (EC50) is 8 µM. In addition, the CC50 in the assay with C8166 [2] came to 80 µM. In assay [3], the Ratio is 10.

As to `CCCOn1c(CC)nc2ccc(OC)cc21`, the EC50 with C8166 [1] was 3.2 µM. Besides, the CC50 in the assay on C8166 [2] was 100 µM. For the same compound, the Ratio in assay [3] stood at 31.

In turn, `CCCOn1c(CC)nc2ccc(Cl)cc21` registered an EC50 in the assay with C8166 [1] of 0.6 µM. Moreover, the CC50 with C8166 [2] turned out to be 40 µM. Also, in assay [3], the Ratio amounted to 67. In assay [4], this compound displayed a Concentration of 10 µM. Further, the inhibition in assay [5] stood at 50%.

Compound `CCCOn1c(CC)nc2ccc(C)cc21` registered an EC50 in the assay with C8166 [1] of 1.6 µM. Besides, the CC50 in the assay on C8166 [6] was 20 µM. The Ratio in assay [7] is 12.5.

Take `CCCOn1c(CC)nc2ccccc21`: the Ratio in assay [8] was 33. The EC50 with C8166 [1] worked out at 2 µM. The CC50 in the assay on C8166 [2] was determined as 100 µM.

Take `Cc1cn([C@H]2C[C@H](N=[N+]=[N-])[C@@H](CO)O2)c(=O)[nH]c1=O` [ZIDOVUDINE]: in the assay on C8166 [2], the CC50 was over 1000 µM.

In the assay on C8166 [1], `CCCOn1c(CC)nc2c(C)cccc21` displayed an EC50 of 6 µM. The CC50 in the assay with C8166 [2] is 1000 µM. For the same compound, in assay [3], the Ratio was 167. In assay [4], this compound displayed a Concentration of 100 µM. For the same compound, the inhibition in assay [5] came out at 66%.
